Assay results reported in paper PMC7150870 (Toxins, 2020).
Read-outs that look alike come from different tables or passages of the source. Marks after values point to notes of the source that are not given here.

Key:
HEK293T [1] = format: cell-based, human
cells = details: cited from earlier work
HEK293T [2] = format: cell-based, human; remark: listed apart in the source
[3] = system: HepG2, Caco-2, RAW 264.7, and HEK 293T cells
HEK 293T cells [4] = format: cell-based, human
HepG2 = format: cell-based, human
Caco-2 = format: cell-based, human
HEK293T cells = format: cell-based, human; details: read-out: IC50 halving the HEK293T cells viability
RAW 264.7 = format: cell-based, mouse
HEK 293T cells [5] = system: HEK 293T cells
epithelial cell layers = details: cited from earlier work
[6] = read-out: IC50 range in studied cells
[7] = human (Caco-2), mouse (RAW 264.7)

Molecule	combination index, mixture of DAS (6.58 nM) (HEK293T [1])	combination index, mixture of HT-2 (21.22 nM) (HEK293T [1])	combination index, mixture of T-2 (3.87 nM) (HEK293T [1])	type of interaction, mixture of DAS (6.58 nM) (HEK293T [1])	type of interaction, mixture of HT-2 (21.22 nM) (HEK293T [1])	type of interaction, mixture of T-2 (3.87 nM) (HEK293T [1])	concentration with statistically significant decrease in viability of cells (cells) [µM]	IC50 (HEK293T [2]) [nM]	metabolites found by non-target U-HPLC-MS analysis (Caco-2 cells)	transepithelial transport, Apical Medium (Caco-2 cells)	transepithelial transport, Basolateral Medium (Caco-2 cells)	transepithelial transport, Caco-2 Cells (Caco-2 cells)	transepithelial transport, Raw 264.7 Cells (Caco-2 cells)	transepithelial transport, Total (Caco-2 cells)	IC50 [3, 6] [nM]	combination index, silibinin 1.7 µM (HEK 293T cells [4])	combination index, silibinin 3.4 µM (HEK 293T cells [4]) [Ant]	combination index, silibinin 6.8 µM (HEK 293T cells [4]) [Ant]	combination index, silibinin 13.6 µM (HEK 293T cells [4]) [Ant]	combination index, silibinin 27.3 µM (HEK 293T cells [4])	also measured
beauvericin	0.96 ± 0.04 Add	0.91 ± 0.04 Add	0.95 ± 0.07 Add	0.96 ± 0.04 Add (key: Syn: Combination index (CI) < 0.9; Add: 0.9 ≤ CI ≤ 1; Ant: CI > 1)	0.91 ± 0.04 Add (key: Syn: Combination index (CI) < 0.9; Add: 0.9 ≤ CI ≤ 1; Ant: CI > 1)	0.95 ± 0.07 Add (key: Syn: Combination index (CI) < 0.9; Add: 0.9 ≤ CI ≤ 1; Ant: CI > 1)	3														
enniatin A1 [ENN-A1]	0.79 ± 0.04 Syn	0.93 ± 0.01 Add	1.27 ± 0.13 Ant	0.79 ± 0.04 Syn (key: Syn: Combination index (CI) < 0.9; Add: 0.9 ≤ CI ≤ 1; Ant: CI > 1)	0.93 ± 0.01 Add (key: Syn: Combination index (CI) < 0.9; Add: 0.9 ≤ CI ≤ 1; Ant: CI > 1)	1.27 ± 0.13 Ant (key: Syn: Combination index (CI) < 0.9; Add: 0.9 ≤ CI ≤ 1; Ant: CI > 1)	1														
diacetoxyscirpenol [DAS]			0.64 ± 0.01 Syn			0.64 ± 0.01 Syn (key: Syn: Combination index (CI) < 0.9; Add: 0.9 ≤ CI ≤ 1; Ant: CI > 1)		6.58 ± 0.36	15-monoacetoxyscirpenol, 4-monoacetoxyscirpenol, 7-hydroxy, 8β-hydroxy, and deepoxy-15- monoacetoxyscirpenol	29.61 ± 0.87^abc %	40.12 ± 0.50^f %	0.02 ± 0.00^a %	0.02 ± 0.00^a %	69.77 ± 0.99^cd %	3.66 to 17.7	1.23 ± 0.06 Ant	1.21 ± 0.05	1.50 ± 0.04	1.56 ± 0.13	1.48 ± 0.08 Ant	combination index, silibinin 0.9 µM (HEK 293T cells [4]): 1.00 ± 0.04 Add; combination index, silibinin 54.5 µM (HEK 293T cells [4]): 1.15 ± 0.02 Ant; combination index, silibinin 109.00 µM (HEK 293T cells [4]): 1.14 ± 0.01 Ant; type of interaction, silibinin 0.9 µM (HEK 293T cells [4]): 1.00 ± 0.04 Add (key: Syn: Combination index (CI) < 0.9; Add: 0.9 ≤ CI ≤ 1; Ant: CI > 1); type of interaction, silibinin 1.7 µM (HEK 293T cells [4]): 1.23 ± 0.06 Ant (key: Syn: Combination index (CI) < 0.9; Add: 0.9 ≤ CI ≤ 1; Ant: CI > 1); type of interaction, silibinin 3.4 µM (HEK 293T cells [4]): 1.21 ± 0.05 Ant (key: Syn: Combination index (CI) < 0.9; Add: 0.9 ≤ CI ≤ 1; Ant: CI > 1); type of interaction, silibinin 6.8 µM (HEK 293T cells [4]): 1.50 ± 0.04 Ant (key: Syn: Combination index (CI) < 0.9; Add: 0.9 ≤ CI ≤ 1; Ant: CI > 1); type of interaction, silibinin 13.6 µM (HEK 293T cells [4]): 1.56 ± 0.13 Ant (key: Syn: Combination index (CI) < 0.9; Add: 0.9 ≤ CI ≤ 1; Ant: CI > 1); type of interaction, silibinin 27.3 µM (HEK 293T cells [4]): 1.48 ± 0.08 Ant (key: Syn: Combination index (CI) < 0.9; Add: 0.9 ≤ CI ≤ 1; Ant: CI > 1); type of interaction, silibinin 54.5 µM (HEK 293T cells [4]): 1.15 ± 0.02 Ant (key: Syn: Combination index (CI) < 0.9; Add: 0.9 ≤ CI ≤ 1; Ant: CI > 1); type of interaction, silibinin 109.00 µM (HEK 293T cells [4]): 1.14 ± 0.01 Ant (key: Syn: Combination index (CI) < 0.9; Add: 0.9 ≤ CI ≤ 1; Ant: CI > 1); IC50 (HepG2): 13.4 ± 1.79 nM; IC50 (Caco-2): 17.7 ± 0.66 nM; IC50 (HEK293T cells): 15 nM; IC50 (RAW 264.7): 3.66 ± 0.37 nM
CC(C)C[C@@H]1NC(=O)[C@H](C)N(C)C(=O)CNC(=O)/C(=C/c2ccccc2)N(C)C1=O [TEN, tentoxin]	0.92 ± 0.17 Add	0.94 ± 0.04 Add	0.92 ± 0.07 Add	0.92 ± 0.17 Add (key: Syn: Combination index (CI) < 0.9; Add: 0.9 ≤ CI ≤ 1; Ant: CI > 1)	0.94 ± 0.04 Add (key: Syn: Combination index (CI) < 0.9; Add: 0.9 ≤ CI ≤ 1; Ant: CI > 1)	0.92 ± 0.07 Add (key: Syn: Combination index (CI) < 0.9; Add: 0.9 ≤ CI ≤ 1; Ant: CI > 1)			metabolite M1, metabolite M2, and metabolite M3	28.07 ± 0.62^abc %	7.25 ± 0.72^ab %	0.00 ± 0.00^a %	0.00 ± 0.00^a %	35.33 ± 0.10^ab %							percentage of DNA in comet tail with respect to the negative control (HEK 293T cells [5]): no significant DNA damage; IC50 [3]: > 50 nM
CC(=O)OC[C@]12C[C@H](OC(=O)CC(C)C)C(C)=C[C@H]1O[C@@H]1[C@H](O)[C@@H](O)[C@@]2(C)[C@]12CO2 [HT-2, HT-2 toxin]	0.54 ± 0.03 Syn		0.67 ± 0.04 Syn	0.54 ± 0.03 Syn (key: Syn: Combination index (CI) < 0.9; Add: 0.9 ≤ CI ≤ 1; Ant: CI > 1)		0.67 ± 0.04 Syn (key: Syn: Combination index (CI) < 0.9; Add: 0.9 ≤ CI ≤ 1; Ant: CI > 1)		21.2 ± 1.6							5.07 to 47.4	1.10 ± 0.02 Add	1.27 ± 0.11	1.57 ± 0.15	1.25 ± 0.08	1.06 ± 0.07 Add	transepithelial transport, Apical Medium (Caco-2 cells; [7]): 72.63±2.25^f %; transepithelial transport, Basolateral Medium (Caco-2 cells; [7]): 49.18 ± 1.80^g %; transepithelial transport, Caco-2 Cells (Caco-2 cells; [7]): 0.01 ± 0.00^a %; transepithelial transport, Raw 264.7 Cells (Caco-2 cells; [7]): 0.01 ± 0.00^a %; transepithelial transport, Total (Caco-2 cells; [7]): 121.83 ± 1.33^f %; combination index, silibinin 54.5 µM (HEK 293T cells [4]): 1.03 ± 0.04 Add; combination index, silibinin 109.00 µM (HEK 293T cells [4]): 1.08 ± 0.03 Add; type of interaction, silibinin 1.7 µM (HEK 293T cells [4]): 1.10 ± 0.02 Add (key: Syn: Combination index (CI) < 0.9; Add: 0.9 ≤ CI ≤ 1; Ant: CI > 1); type of interaction, silibinin 3.4 µM (HEK 293T cells [4]): 1.27 ± 0.11 Ant (key: Syn: Combination index (CI) < 0.9; Add: 0.9 ≤ CI ≤ 1; Ant: CI > 1); type of interaction, silibinin 6.8 µM (HEK 293T cells [4]): 1.57 ± 0.15 Ant (key: Syn: Combination index (CI) < 0.9; Add: 0.9 ≤ CI ≤ 1; Ant: CI > 1); type of interaction, silibinin 13.6 µM (HEK 293T cells [4]): 1.25 ± 0.08 Ant (key: Syn: Combination index (CI) < 0.9; Add: 0.9 ≤ CI ≤ 1; Ant: CI > 1); type of interaction, silibinin 27.3 µM (HEK 293T cells [4]): 1.06 ± 0.07 Add (key: Syn: Combination index (CI) < 0.9; Add: 0.9 ≤ CI ≤ 1; Ant: CI > 1); type of interaction, silibinin 54.5 µM (HEK 293T cells [4]): 1.03 ± 0.04 Add (key: Syn: Combination index (CI) < 0.9; Add: 0.9 ≤ CI ≤ 1; Ant: CI > 1); type of interaction, silibinin 109.00 µM (HEK 293T cells [4]): 1.08 ± 0.03 Add (key: Syn: Combination index (CI) < 0.9; Add: 0.9 ≤ CI ≤ 1; Ant: CI > 1); IC50 (HepG2): 47.4 ± 1.29 nM; IC50 (Caco-2): 44.2 ± 2.26 nM; IC50 (HEK293T cells): 30 nM; transport through the epithelial cell layers (epithelial cell layers): ≤ 32%; IC50 (RAW 264.7): 5.07 ± 0.46 nM
enniatin A [ENN-A]	0.83 ± 0.05 Syn	0.80 ± 0.06 Syn	0.86 ± 0.07 Syn	0.83 ± 0.05 Syn (key: Syn: Combination index (CI) < 0.9; Add: 0.9 ≤ CI ≤ 1; Ant: CI > 1)	0.80 ± 0.06 Syn (key: Syn: Combination index (CI) < 0.9; Add: 0.9 ≤ CI ≤ 1; Ant: CI > 1)	0.86 ± 0.07 Syn (key: Syn: Combination index (CI) < 0.9; Add: 0.9 ≤ CI ≤ 1; Ant: CI > 1)	1														
